Measurements published in US20040024024A1, “Aromatic sulfone hydroxamates and their use as protease inhibitors” (priority 2001, published 2004).
Blank lines part the entries; values can stand above or below the molecule they belong to.

What was measured:
Assay in all cases: In vitro MMP inhibition, IC50 determination (fluorogenic substrate I)
Assay type in all cases: biochemical
Human recombinant MMP-2 = target: T1, Human recombinant MMP-2 (Homo sapiens, UniProt P08253)
T1 construct: made in house; host or cells: MMP-2-transfected p2AHT2 cells
T1 sequence (P08253 110-660): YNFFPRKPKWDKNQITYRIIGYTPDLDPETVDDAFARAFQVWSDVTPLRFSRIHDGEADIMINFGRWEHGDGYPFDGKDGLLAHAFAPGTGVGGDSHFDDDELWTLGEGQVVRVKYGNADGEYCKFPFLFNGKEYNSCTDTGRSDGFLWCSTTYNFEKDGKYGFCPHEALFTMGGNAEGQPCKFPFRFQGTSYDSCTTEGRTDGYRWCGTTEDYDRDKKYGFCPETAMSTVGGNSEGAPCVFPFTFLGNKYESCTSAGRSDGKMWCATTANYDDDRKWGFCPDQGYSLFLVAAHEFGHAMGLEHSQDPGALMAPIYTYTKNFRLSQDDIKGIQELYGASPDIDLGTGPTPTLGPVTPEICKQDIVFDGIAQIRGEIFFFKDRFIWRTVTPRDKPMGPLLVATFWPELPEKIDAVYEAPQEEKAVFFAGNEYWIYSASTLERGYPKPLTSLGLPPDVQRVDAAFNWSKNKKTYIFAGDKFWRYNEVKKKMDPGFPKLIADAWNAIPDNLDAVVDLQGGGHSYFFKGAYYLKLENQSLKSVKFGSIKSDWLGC
Method in brief: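 IC50 was derived from the concentration-dependent fall in fluorescence (ex 328, em 415 nm) on Gly-Leu cleavage of 4 μM MCA/Dpa-quenched substrate I. Assays ran at room temperature in pH 7.5 Tris/NaCl/CaCl2/Brij buffer with MMP-2 activated by trypsin or APMA; inhibitors were diluted from 1% DMSO stocks.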

Human recombinant MMP-14 = target: T2, Human recombinant MMP-14 (Homo sapiens, UniProt P50281)
T2 construct: The catalytic domain enzyme was expressed in E. coli inclusion bodies, solubilized in urea; made in house
Description: (§1) Several hydroxamates and salts thereof were analyzed in in vitro assays to determine their ability to inhibit the MMP cleavage of peptide substrates. Inhibition (Ki) and IC50 constants were calculated from the assayed hydroxamate-MMP interactions.
(§2) Human recombinant MMP-1, MMP-2, MMP-9, MMP-13, and MMP-14 were used in this assay. All enzymes were prepared in Assignee's laboratories following usual laboratory procedures. Protocols for the preparation and use of these enzymes are available in the scientific literature. See, e.g., Enzyme Nomenclature (Academic Press, San Diego, Calif., 1992) (and the citations therein). See also, Frije et al., J. Biol. Chem., 26(24), 16766-73 (1994).
The MMP-14 full length cDNA was provided by Dr. Gregory Goldberg of Washington University (St. Louis, Mo.). The catalytic domain enzyme was expressed in E. coli inclusion bodies, solubilized in urea, purified on a preparative […] reverse phase HPLC column, and then refolded in the presence of zinc acetate and purified for use.
(§3) All MMPs were activated using 4-aminophenylmercuric acetate (“APMA”, Sigma Chemical, St. Louis, Mo.) or trypsin. MMP-9 also was activated using human recombinant MMP-3 (purified in Assignee's laboratory following standard cloning and purification techniques).
(§4) Two fluorogenic, methoxycoumarin-containing polypeptide substrates were used in the MMP inhibition assays:
(§5) MCA-ProLeuGlyLeuDpaAlaArgNH2 (I)
(§6) Here, “Dpa” is 3-(2,4-dinitrophenyl)-L-2,3-diaminopropionyl group, and “MCA” is 7-methoxycoumarin-4-yl acetyl. Substrate (I) was purchased from Baychem (Redwood City, Calif.), and substrate II was prepared Assignee's laboratory. Substrate I was used in the IC50 determination assays, while substrate II was used in the Ki determination assays. In the absence of MMP inhibitory activity, either substrate is cleaved at the Gly-Leu peptide bond. This cleavage separates the highly fluorogenic peptide from the 2,4-dinitrophenyl quencher, thus resulting in increase of fluorescent intensity.
(§7) The stock solutions of the assayed hydroxamates (or salts thereof) were prepared in 1% dimethyl sulfoxide (DMSO). These stock solutions were diluted in Buffer A (100 mM Tris-HCl, 100 mM NaCl, 10 mM CaCl2, 0.05% polyoxyethylene 23 lauryl ether, pH 7.5) to obtain solutions with different hydroxamate concentrations, i.e., assay solutions with different concentrations of the assayed MMP inhibitory compound. The experiment controls contained the same amount of Buffer A/DMSO as the assayed sample, but contained no hydroxamate (or salt thereof).
(§8) The assays from which the IC50 determinations were made were performed as follows. The MMPs were activated with either trypsin or APMA (4-aminophenylmercuric acetate, Sigma Chemical, St. Louis, Mo.). The assayed hydroxamate samples were, incubated in Microfluorrm White Plates (Dynatech, Chantilly, VA) and analyzed on a Perkin Elmer L550 plate reader (Norwalk, Conn.). The excitation wavelength was 328 nm, and the emission wavelength—415 nm. All samples (assayed hydroxamates and controls) were incubated in separate plates at room temperature in the presence of 4 μM of MMP substrate (I). As stated in the previous paragraph, samples containing varying concentrations of the same assayed hydroxamate were prepared. Inhibition was measured as a reduction in fluorescent intensity as a function of MMP inhibitor concentration.

Human recombinant MMP-9 = target: T3, Human recombinant MMP-9 (Homo sapiens, UniProt P14780)
T3 construct: made in house; host or cells: MMP-9-transfected HT1080 cells (spent media)
T3 sequence (P14780 107-707 limits assumed): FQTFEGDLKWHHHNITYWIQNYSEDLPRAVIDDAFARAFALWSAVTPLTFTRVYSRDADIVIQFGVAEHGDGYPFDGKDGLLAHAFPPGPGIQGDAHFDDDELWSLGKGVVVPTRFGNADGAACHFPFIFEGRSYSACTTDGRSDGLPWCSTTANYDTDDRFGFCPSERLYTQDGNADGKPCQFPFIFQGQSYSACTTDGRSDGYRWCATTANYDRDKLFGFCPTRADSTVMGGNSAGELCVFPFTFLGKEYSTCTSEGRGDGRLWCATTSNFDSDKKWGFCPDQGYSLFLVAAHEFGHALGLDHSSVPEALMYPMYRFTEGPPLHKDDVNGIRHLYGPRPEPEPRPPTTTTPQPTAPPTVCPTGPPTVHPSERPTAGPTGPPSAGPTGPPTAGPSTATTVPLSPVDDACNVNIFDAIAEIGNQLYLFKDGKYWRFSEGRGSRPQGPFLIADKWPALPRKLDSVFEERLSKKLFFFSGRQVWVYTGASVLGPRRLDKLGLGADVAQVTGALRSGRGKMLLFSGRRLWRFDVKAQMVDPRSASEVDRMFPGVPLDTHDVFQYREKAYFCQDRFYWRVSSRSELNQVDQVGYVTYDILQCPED
Description: as §1, §2
The MMP-9 proenzyme was purified by gelatin Sepharose chromatography from spent media of MMP-9-transfected HT1080 cells provided by Dr. Howard Welgus of Washington University (St. Louis, Mo.).
as §3, §4, §5, §6, §7, §8

Human recombinant MMP-1 = target: T4, Human recombinant MMP-1 (Homo sapiens, UniProt P03956)
T4 construct: made in house; host or cells: MMP-1-transfected HT-1080 cells (spent media)
T4 sequence (P03956 100-469): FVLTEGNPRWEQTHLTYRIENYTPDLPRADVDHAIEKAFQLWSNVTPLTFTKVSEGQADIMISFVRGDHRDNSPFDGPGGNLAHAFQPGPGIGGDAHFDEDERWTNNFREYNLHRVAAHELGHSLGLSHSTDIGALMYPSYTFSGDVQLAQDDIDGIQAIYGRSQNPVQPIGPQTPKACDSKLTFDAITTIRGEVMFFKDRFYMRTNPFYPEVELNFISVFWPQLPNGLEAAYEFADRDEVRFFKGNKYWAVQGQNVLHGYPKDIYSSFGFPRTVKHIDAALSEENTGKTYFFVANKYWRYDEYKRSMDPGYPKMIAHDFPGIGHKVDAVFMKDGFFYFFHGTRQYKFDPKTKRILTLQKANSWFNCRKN
Description: as §1, §2
The MMP-1 proenzyme was purified from the spent media of MMP-1-transfected HT-1080 cells provided by Dr. Harold Welgus of Washington University (St. Louis, Mo.). The protein was purified on a zinc chelating column.
as §3, §4, §5, §6, §7, §8

Human recombinant MMP-13 = target: T5, Human recombinant MMP-13 (Homo sapiens, UniProt P45452)
T5 construct: made in house; host or cells: baculovirus / insect cells
Method in brief: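 Fluorescence at 415 nm (excitation 328 nm) reports Gly-Leu cleavage of 4 μM quenched methoxycoumarin peptide substrate I. Human recombinant MMP-13, activated by trypsin or APMA, was incubated at room temperature with varied inhibitor concentrations in pH 7.5 Tris/NaCl/CaCl2 buffer; IC50 derived from reduced fluorescence.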

[1] = substrate (I) 4 μM, room temperature, values not in parenthesis
[2] = value outside parentheses (Ki in parenthesis)

IC50 (Human recombinant MMP-2; [1]): 0.0303 µM | IC50 (Human recombinant MMP-14; [1]): > 10 µM | IC50 (Human recombinant MMP-9; [1]): 0.449 µM | IC50 (Human recombinant MMP-1; [1]): 8.71 µM | IC50 (Human recombinant MMP-13; [1]): 0.0014 µM
Compound: O=C(NO)C1(S(=O)(=O)c2ccc(OCCCc3nc4ccccc4o3)cc2)CCOCC1 [Example 37, 4-[[4-[3-(2-benzoxazolyl)propoxy]phenyl]sulfonyl]tetrahydro-N-hydroxy-2H-pyran-4-carboxamide]

IC50 (Human recombinant MMP-2; [2]): 0.003 µM | IC50 (Human recombinant MMP-14; [2]): 0.4 µM | IC50 (Human recombinant MMP-9; [2]): 0.04 µM | IC50 (Human recombinant MMP-1; [2]): > 10 µM | IC50 (Human recombinant MMP-13; [2]): 0.006 µM
Compound: COC(C)CCOc1ccc(S(=O)(=O)C2(C(=O)NO)CCOCC2)cc1 (stereo not shown) [Example 472]

IC50 (Human recombinant MMP-2; [2]): 0.106 µM | IC50 (Human recombinant MMP-14; [2]): > 10 µM | IC50 (Human recombinant MMP-9; [2]): 0.255 µM | IC50 (Human recombinant MMP-1; [2]): > 10 µM | IC50 (Human recombinant MMP-13; [2]): 0.0046 µM
Compound: CN(C)c1ccc(/C=C/CCCOc2ccc(S(=O)(=O)C3(C(=O)NO)CCOCC3)cc2)cc1 [Example 486]

IC50 (Human recombinant MMP-2; [1]): 0.0226 µM | IC50 (Human recombinant MMP-14; [1]): > 10 µM | IC50 (Human recombinant MMP-9; [1]): 0.809 µM | IC50 (Human recombinant MMP-1; [1]): > 10 µM | IC50 (Human recombinant MMP-13; [1]): 0.0013 µM
Compound: COc1ccc(-c2coc(CCCOc3ccc(S(=O)(=O)C4(C(=O)NO)CCOCC4)cc3)n2)cc1 [Example 30, tetrahydro-N-hydroxy-4-[[4-[3-[4-(4-methoxyphenyl)-2-oxazolyl]propoxy]phenyl]sulfonyl]-2Hpyran-4-carboxamide]

IC50 (Human recombinant MMP-2; value outside parentheses): 0.0249 µM | IC50 (Human recombinant MMP-14; value outside parentheses): 2.51 µM | IC50 (Human recombinant MMP-9; value outside parentheses): 0.0491 µM | IC50 (Human recombinant MMP-1; value outside parentheses): 3.92 µM | IC50 (Human recombinant MMP-13; value outside parentheses): 0.00558 µM
Compound: O=C(NO)C1(S(=O)(=O)c2ccc(OCCOCc3ccccc3)cc2)CCOCC1 [Example 653]

IC50 (Human recombinant MMP-2; value outside parenthesis): 0.0602 µM | IC50 (Human recombinant MMP-14; value outside parenthesis): > 10 µM | IC50 (Human recombinant MMP-9; value outside parenthesis): 0.944 µM | IC50 (Human recombinant MMP-1; value outside parenthesis): > 10 µM | IC50 (Human recombinant MMP-13; value outside parenthesis): 0.0013 µM
Compound: O=C(NO)C1(S(=O)(=O)c2ccc(OCCCc3nc(-c4ccccc4)no3)cc2)CCOCC1 [Example 241]

IC50 (Human recombinant MMP-2; value outside parenthesis): 0.0188 µM | IC50 (Human recombinant MMP-14; value outside parenthesis): > 10 µM | IC50 (Human recombinant MMP-9; value outside parenthesis): 0.108 µM | IC50 (Human recombinant MMP-1; value outside parenthesis): 3.25 µM | IC50 (Human recombinant MMP-13; value outside parenthesis): 0.0007 µM
Compound: O=C(NO)C1(S(=O)(=O)c2ccc(OCCCc3nnc(Cl)o3)cc2)CCOCC1 [Example 244]

IC50 (Human recombinant MMP-2; [2]): 0.0089 µM | IC50 (Human recombinant MMP-14; [2]): 1.36 µM | IC50 (Human recombinant MMP-9; [2]): 0.0122 µM | IC50 (Human recombinant MMP-1; [2]): > 10 µM | IC50 (Human recombinant MMP-13; [2]): 0.002 µM
Compound: COc1ccc(OCCCOc2ccc(S(=O)(=O)C3(C(=O)NO)CCOCC3)cc2)cc1 [Example 447]

IC50 (Human recombinant MMP-2; value outside parenthesis): 0.0489 µM | IC50 (Human recombinant MMP-14; value outside parenthesis): > 10 µM | IC50 (Human recombinant MMP-9; value outside parenthesis): 5.18 µM | IC50 (Human recombinant MMP-1; value outside parenthesis): > 10 µM | IC50 (Human recombinant MMP-13; value outside parenthesis): 0.0046 µM
Compound: COc1cc(OC)cc(-c2noc(CCCOc3ccc(S(=O)(=O)C4(C(=O)NO)CCOCC4)cc3)n2)c1 [Example 217]

IC50 (Human recombinant MMP-2; [2]): 0.0182 µM | IC50 (Human recombinant MMP-14; [2]): 5.63 µM | IC50 (Human recombinant MMP-9; [2]): 0.928 µM | IC50 (Human recombinant MMP-1; [2]): > 10 µM | IC50 (Human recombinant MMP-13; [2]): 0.0002 µM
Compound: CN(C)c1ccc(C(=O)CCCOc2ccc(S(=O)(=O)C3(C(=O)NO)CCOCC3)cc2)cc1 [Example 490]

IC50 (Human recombinant MMP-2; [2]): 0.0023 µM | IC50 (Human recombinant MMP-14; [2]): 7.96 µM | IC50 (Human recombinant MMP-9; [2]): 1.18 µM | IC50 (Human recombinant MMP-1; [2]): > 10 µM | IC50 (Human recombinant MMP-13; [2]): 0.001 µM
Compound: O=C(NO)C1(S(=O)(=O)c2ccc(OCCCCCn3cnc4ccccc43)cc2)CCOCC1 [Example 359]
